Results on 15 compounds are retold here after PubChem BioAssay (NCI).

Common to all, as to assay: inhibition of tumour cell growth, NCI panel, 48 h
The subject of assay [1] is CCRF-CEM leukemia.
The subject of assay [2] is COLO 205 colon.
For assay [3], the system named is HOP-92 NSCLC.
The subject of assay [4] is HCT-116 colon.
Assay [5] concerns SK-OV-3 ovarian.
For assay [6], the system named is SW-620 colon.
For assay [7], the system named is LOX IMVI melanoma.
In assay [8] the test system is MCF7 breast.
Assay [9] concerns NCI-H226 lung.
For assay [10], the system named is 786-0 renal.
The subject of assay [11] is BT-549 breast.

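All cell lines were grown in 96-well plates and treated with compound for 48 hours. TGI marks complete inhibition of growth.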

On to `O=C1C(Cl)N(c2cccc([N+](=O)[O-])c2)C1c1c[nH]c2ccccc12` (stereo unspecified), for which the TGI in assay [1] is 65.7 µM; in assay [2], 41.8 µM; in assay [3], 47.9 µM; in assay [4], 44.6 µM; in assay [5], 38 µM; in [6], more than 100 µM.
With `CSc1nc2c(ncn2C2OCC(O)C(O)C2O)c(=O)n1C` (stereo unspecified), the TGI in assay [7], in assay [8], in [9], in assay [1], in assay [2] and in assay [3] was more than 100 µM each time. Further, the TGI in assay [4], in assay [5] and in [6] was more than 100 µM each time.
Regarding `COC(=O)C(C/C=C(\C)c1ccc(Cl)cc1)C(C)=O` (stereo unspecified), the TGI was 28.1 µM in assay [7]; more than 100 µM in assay [8]; more than 91 µM in assay [9]; more than 100 µM in assay [1]; more than 100 µM in assay [2]; 64.2 µM in [3]. Moreover, the TGI in [4], in assay [5] and in assay [6] was more than 100 µM in each case.
Regarding `O=c1cn[nH]c(=S)n1/N=C/c1c[nH]c2ccccc12`, the TGI in assay [7] is 93.2 µM; in assay [8], more than 100 µM; in assay [10], more than 100 µM; in [11] it was more than 100 µM; in [1] it was 30.3 µM; in assay [2], more than 100 µM. Besides, the TGI in assay [4], in [5] and in [6] was more than 100 µM each time.
As for `CCOC(=O)c1c2c(c(O)c3ccccc3c(O)n(Cc3ccccc3)c1C)C(=O)C=CC2=O`, the TGI in assay [7] was more than 100 µM; in assay [8], 0.769 µM; in [10], more than 100 µM; in assay [9], more than 100 µM; in assay [1] it was more than 100 µM; in assay [2], more than 100 µM. The TGI in assay [3], in [4], in assay [5] and in assay [6] was more than 100 µM in each case.
As to `COc1cc2c(cc1OCCCCOc1cc3c(cc1OC)C(=O)N1CCC[C@H]1C(=O)N3)N=C[C@@H]1CCCN1C2=O`, the TGI worked out at 4.22 µM in [7]; 18.1 µM in assay [8]; 39.2 µM in assay [10]; 26.7 µM in assay [9]; 16.8 µM in assay [11]; 7.41 µM in [2]. Also, the figures for the TGI in assay [4] and in assay [6] were more than 100 µM and 14.6 µM, respectively.
For the compound `CC(C)(C)C1=CC(=C2C(=O)C(=O)c3ccccc3C2=O)C=C(C(C)(C)C)C1=O`, the TGI in [7] is more than 100 µM; in [10], more than 100 µM; in assay [1], more than 100 µM; in assay [2] it was more than 100 µM; in [3] it was 82.9 µM; in assay [4], more than 100 µM. Also, the TGI in assay [5] and in assay [6] was more than 100 µM each time.
For the compound `CC(=O)NC(Cc1ccsc1)C(=O)O` (stereo unspecified), the TGI in assay [7], in assay [8], in [9], in assay [1], in assay [2] and in assay [3] was more than 100 µM each time. In addition, the TGI in [4], in [5] and in [6] was more than 100 µM throughout.
Consider `O=C(O)C12CCCCC1CCCC2` (stereo unspecified), for which the TGI in assay [7], in assay [9], in assay [1], in [2], in [3] and in assay [4] was more than 100 µM in each case. Moreover, the TGI in assay [5] and in assay [6] was more than 100 µM throughout.
`CSc1ncc2c(n1)sc1c(=O)n(-c3ccccc3)cnc12`: the TGI in [7], in assay [10], in assay [9], in assay [11], in [1] and in assay [2] was more than 100 µM throughout. In addition, the TGI in assay [3], in assay [4], in assay [5] and in assay [6] was more than 100 µM each time.
Turning to `COC1OC(COC(=O)c2cc(O)c(O)c(O)c2)C(OC(=O)c2cc(O)c(O)c(O)c2)C(OC(=O)c2cc(O)c(O)c(O)c2)C1OC(=O)c1cc(O)c(O)c(O)c1` (stereo unspecified), the TGI in [7] was more than 100 µM; in assay [8], more than 100 µM; in assay [10] it was 26.4 µM; in assay [9] it was 66.8 µM; in assay [1] it was 42.5 µM; in [2], more than 100 µM. In addition, the TGI in [3] is more than 100 µM; in [4] it was more than 100 µM; in [5], 54 µM; in assay [6], more than 100 µM.
Turning to `COc1cc(C2C(Cl)C(=O)N2NC(=O)c2ccc(N)cc2)cc(Br)c1O` (stereo unspecified), the TGI in assay [7] is 11 µM; in [10], 26 µM; in assay [9], 46.2 µM; in assay [1], 12.1 µM; in assay [2], 33.4 µM; in assay [3] it was 39.8 µM. For the same compound, the TGI in [4] was determined as 22.3 µM; in assay [5], 73 µM; in [6], 35.1 µM.
Regarding `O=Cc1ccc(CCl)cc1`, the TGI was 28 µM in assay [7]; more than 100 µM in assay [1]; more than 100 µM in [2]; 52.5 µM in assay [3]; 29.1 µM in [4]; 51.7 µM in [5]. In [6], this compound displayed a TGI of 52.1 µM.
For `Cc1c2ccncc2c(C)c2c1[nH]c1ccc(OCC(F)(F)F)cc12`, the TGI in [7] turned out to be 3.09 µM; in assay [10], 2.9 µM; in assay [9], 3.24 µM; in assay [1], 4.9 µM; in assay [2] it was 3.18 µM; in [5] it was 3.31 µM. Further, the TGI in assay [6] is 1.99 µM.
On to `COP(=O)(OC)C(O)CC(C)C` (stereo unspecified), for which the TGI in [8], in assay [10], in assay [9], in assay [2], in assay [4] and in assay [5] was more than 100 µM each time. The TGI in assay [6] was more than 100 µM.
